Results reported in patent US8357518B2, “Thermostable enzymes for the hydrolysis of mannan-containing polysaccharides” (The Board of Trustees of the University of Illinois, priority 2010, dated 2013).
Residue numbers refer to the chain shown, from its start.

How the values were obtained:
Format in all cases: biochemical
[1] = target: T1, Caldanaerobius polysaccharolyticus endo-β-mannanase Man5B, wild type, SEQ ID NO: 31 (Caldanaerobius polysaccharolyticus, UniProt D9J0D7); test: Kinetic properties with pNP-linked sugars (Man5B wild type); settings: reference
Method: The plasmid constructs were then introduced into E. coli BL-21 CodonPlus (DE3) RIL competent cells by heat shock, and grown overnight in lysogeny broth (LB) agar medium supplemented with ampicillin (100 μg/mL) and chloramphenicol (50 μg/mL) at 37° C. After 12 h, single colonies were selected and used to inoculate fresh LB (10 mL) supplemented with the antibiotics above at the same concentrations, followed by culturing with aeration for 8 h at 37° C. The pre-cultures were then inoculated into fresh LB (1 L) supplemented with ampicillin and chloramphenicol and the cultures were incubated at 37° C. with vigorous aeration (225 rpm/min). […] Aliquots of eluted fractions were analyzed by sodium dodecyl sulfate-polyacrylamide gel electrophoresis (SDS-PAGE) and protein bands were visualized by staining with Coomassie brilliant blue G-250. […] The UV absorbances of the protein solutions were recorded at 280 nm using a Nanoprop 1000 from Thermo Scientific (Waltham, Mass.) and the protein concentrations were calculated using the following extinction coefficients: Man5A-TM1, ε280 nm=189 mM^−1 cm^−1; Man5A-TM2, ε280 nm=113 mM^−1 cm^−1; Man5B, ε280 nm=103 mM^−1 cm^−1.
Determination of kinetic properties for wild type and mutant Man5B with pNP-linked sugars. Kinetic properties of wild type and mutant Man5B were determined for pNP-β-D-mannopyranoside and pNP-β-D-cellobioside. […]

[2] = target: T2, Caldanaerobius polysaccharolyticus endo-β-mannanase Man5B (SEQ ID NO: 31) variant E137A (Caldanaerobius polysaccharolyticus, UniProt D9J0D7, E137A); test: Kinetic properties with pNP-linked sugars (Man5B E137A); settings: relative to wild type
T2 sequence (D9J0D7 1-330 E137A): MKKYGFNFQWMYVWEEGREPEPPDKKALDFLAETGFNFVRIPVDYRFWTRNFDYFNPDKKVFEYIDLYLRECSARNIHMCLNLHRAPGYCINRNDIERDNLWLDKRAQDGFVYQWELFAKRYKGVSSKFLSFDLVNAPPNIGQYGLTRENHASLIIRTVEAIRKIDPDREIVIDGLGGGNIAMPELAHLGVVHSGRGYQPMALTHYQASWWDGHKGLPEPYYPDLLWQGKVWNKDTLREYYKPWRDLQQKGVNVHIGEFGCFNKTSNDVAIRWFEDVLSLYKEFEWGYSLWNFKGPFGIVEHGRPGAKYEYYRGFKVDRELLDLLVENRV
Method: (§1) Determination of kinetic properties for wild type and mutant Man5B with pNP-linked sugars. Kinetic properties of wild type and mutant Man5B were determined for pNP-β-D-mannopyranoside and pNP-β-D-cellobioside. The substrate concentrations ranged from 0.06 to 10 mM and reactions were performed at 65° C. in citrate buffer (50 mM sodium citrate, pH 5.5). The reactions were equilibrated to 65° C. using a thermostated Cary 300 UV-Vis spectrophotometer, and the reactions were initiated by the addition of wild type (5 nM, final concentration) or mutant (2 μM, final concentration) Man5B. The rate of pNP release was determined by continuously monitoring the absorbance at 400 nm. Initial rate data were then plotted against the substrate concentrations, and the values of the Michaelis-Menten constant (KM) and the maximum velocity (Vmax) were estimated from a nonlinear curve fit using GraphPad Prism v5.01 from GraphPad Software (San Diego, Calif.). The kcat was calculated as the quotient of the Vmax and the concentration of enzyme used in the reaction.
(§2) Site-directed mutagenesis. Mutagenesis was carried out using PCR-based […] […]
(§3) Next, to test whether the mutations introduced in Man5B had any effects on the catalytic activity of this enzyme, the catalytic parameters for the wild type and mutant enzymes were determined using pNP-β-D-cellobioside and pNP-β-D-mannopyranoside as substrates.

[3] = target: T3, Caldanaerobius polysaccharolyticus endo-β-mannanase Man5B (SEQ ID NO: 31) variant E137Q (Caldanaerobius polysaccharolyticus, UniProt D9J0D7, E137Q); test: Kinetic properties with pNP-linked sugars (Man5B E137Q); settings: relative to wild type
T3 sequence (D9J0D7 1-330 E137Q): T2 sequence (D9J0D7 1-330 E137A) with A137Q
Method: as §1, §2, §3

[4] = target: T4, Caldanaerobius polysaccharolyticus endo-β-mannanase Man5B (SEQ ID NO: 31) variant E258A (Caldanaerobius polysaccharolyticus, UniProt D9J0D7, E258A); test: Kinetic properties with pNP-linked sugars (Man5B E258A); settings: relative to wild type
T4 sequence (D9J0D7 1-330 E258A): T2 sequence (D9J0D7 1-330 E137A) with A137E, E258A
Method: as §1, §2, §3

[5] = target: T5, Caldanaerobius polysaccharolyticus endo-β-mannanase Man5B (SEQ ID NO: 31) variant E258Q (Caldanaerobius polysaccharolyticus, UniProt D9J0D7, E258Q); test: Kinetic properties with pNP-linked sugars (Man5B E258Q); settings: relative to wild type
T5 sequence (D9J0D7 1-330 E258Q): T2 sequence (D9J0D7 1-330 E137A) with A137E, E258Q
Method: as §1, §2, §3

[6] = target: T1, Caldanaerobius polysaccharolyticus endo-β-mannanase Man5B, wild type, SEQ ID NO: 31; test: Catalytic efficiency with oligosaccharides, HPAEC (Man5B); settings: value for GM3 higher than that for GM2
Method: Cloning, expression, and purification of Man5A-TM1, Man5A-TM2 and Man5B. C. polysaccharolyticus was cultured in TYG medium and DNA was isolated from mid-log cultures and purified using the Qiagen DNeasy Blood and Tissue kit with an integrated RNase treatment step. The genome of C. polysaccharolyticus was partially sequenced by the W. M. Keck Biotechnology Center at the University of Illinois at Urbana-Champaign. A Newbler assembly was generated which is comprised of ½ plate of FLX PE 454 data and ½ plate of 8 kb paired-end GSFLX Titanium data using a Genome Sequencer instrument from 454 Life Sciences (Branford, Conn.). The partial genome sequence was uploaded onto the Rapid Annotation using Subsystem Technology (RAST) server (Aziz et al., BMC Genomics, 9:75, 2008). Auto-annotation of the C. polysaccharolyticus partial genome sequence identified ORF0760 as a gene predicted to encode a bifunctional β-D-mannanase/endoglucanase (Man5B). Man5A was previously identified in a recombinant phage library of C. polysaccharolyticus genomic DNA, which was screened for endoglucanase activity (Cann et al., J Bacteriol, 181:1643, 1999) and the full sequence of this gene was also identified in the partial genome sequence for C. polysaccharolyticus. […]

T1 sequence (D9J0D7 entry or part of it): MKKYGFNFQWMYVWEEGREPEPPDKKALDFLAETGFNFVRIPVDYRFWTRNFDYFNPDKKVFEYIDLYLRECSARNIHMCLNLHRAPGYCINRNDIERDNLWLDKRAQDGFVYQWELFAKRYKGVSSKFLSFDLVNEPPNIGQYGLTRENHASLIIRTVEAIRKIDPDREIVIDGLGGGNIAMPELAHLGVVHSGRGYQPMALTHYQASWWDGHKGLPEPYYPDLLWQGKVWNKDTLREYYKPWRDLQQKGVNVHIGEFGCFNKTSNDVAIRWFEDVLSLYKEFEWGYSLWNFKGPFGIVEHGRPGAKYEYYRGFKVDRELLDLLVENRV

catalytic efficiency (kcat/Km), GM3 relative to GM2 [6]	SMILES	rkcat (residual kcat) [1]	rkcat (residual kcat) [2]	rkcat (residual kcat) [3]	rkcat (residual kcat) [4]	rkcat (residual kcat) [5]
	O=[N+]([O-])c1ccc(O[C@@H]2O[C@H](CO)[C@@H](O)[C@H](O)[C@@H]2O)cc1 [pNP-β-D-mannopyranoside]	100%	0.04%	0.04%	0.04%	0.03%
20 fold	OC[C@H]1O[C@H](OC[C@H]2OC(O)[C@@H](O)[C@@H](O)[C@@H]2O[C@@H]2O[C@H](CO)[C@@H](O[C@@H]3O[C@H](CO)[C@@H](O)[C@H](O)[C@@H]3O)[C@H](O)[C@@H]2O)[C@H](O)[C@@H](O)[C@H]1O (stereo partly drawn) [6-galactosyl-mannotriose, α-1,6-galactosyl-mannotriose]					
	O=[N+]([O-])c1ccc(O[C@@H]2O[C@H](CO)[C@@H](O[C@@H]3O[C@H](CO)[C@@H](O)[C@H](O)[C@H]3O)[C@H](O)[C@H]2O)cc1 [pNP-cellobioside, pNP-β-D-cellobioside]	100%	0.48%	1.96%	0.55%	0.62%
